We go through three compounds from paper PMC3101243, “Probenecid Inhibits the Human Bitter Taste Receptor TAS2R16 and Suppresses Bitter Perception of Salicin” (PLoS ONE, 2011).

Holding throughout (type): cell-based
For experiment [1], the target named is T1, hTAS2R16 (Homo sapiens, UniProt Q9NYV7, R222H).
T1 construct: gene TAS2R16
T1 sequence (Q9NYV7 1-291 R222H): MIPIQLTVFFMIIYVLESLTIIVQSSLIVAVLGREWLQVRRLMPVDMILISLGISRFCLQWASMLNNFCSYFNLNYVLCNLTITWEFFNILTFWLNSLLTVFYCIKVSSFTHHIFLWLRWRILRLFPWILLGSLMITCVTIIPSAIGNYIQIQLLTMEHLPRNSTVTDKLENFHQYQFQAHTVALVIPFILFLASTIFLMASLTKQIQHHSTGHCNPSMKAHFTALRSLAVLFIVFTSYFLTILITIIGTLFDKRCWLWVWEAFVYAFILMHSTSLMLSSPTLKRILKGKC
Description: calcium flux in transfected HEK-293T cells (with Gα[…]gust44), inhibition of […] salicin response; dose-response and mutant analysis. Background: Calcium assays in cells follow changes in intracellular calcium, usually with a dye or a luminescent sensor.

The target in experiment [2] is T2, hTAS2R38 (Homo sapiens, UniProt P59533, A49P/I296V).
T2 construct: gene TAS2R38; PAV variant; first 45 amino acids of the rat somatostatin type 3 receptor fused for cell-surface targeting
Description: calcium flux in transfected HEK-293T cells (with Gα[…]gust44), inhibition of […] PTC response.

Experiment [3] deals with T1, hTAS2R16. The experiment can be described thus: calcium flux agonist dose-response in transfected HEK-293T cells (with Gα[…]gust44).
Experiment [4] has as its target T3, hTAS2R43 (Homo sapiens, UniProt P59537).
T3 construct: gene TAS2R43; W35/H212 variant; first 45 amino acids of the rat somatostatin type 3 receptor fused for cell-surface targeting
T3 sequence (P59537 1-309): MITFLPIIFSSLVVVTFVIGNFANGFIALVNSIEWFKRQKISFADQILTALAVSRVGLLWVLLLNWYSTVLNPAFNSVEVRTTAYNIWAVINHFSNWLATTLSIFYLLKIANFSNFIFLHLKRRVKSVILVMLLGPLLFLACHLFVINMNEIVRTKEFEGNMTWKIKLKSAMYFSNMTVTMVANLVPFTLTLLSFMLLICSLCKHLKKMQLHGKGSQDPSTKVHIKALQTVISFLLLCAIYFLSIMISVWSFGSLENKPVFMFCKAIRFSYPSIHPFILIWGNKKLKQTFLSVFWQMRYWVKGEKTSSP
The experiment can be described thus: calcium flux in transfected HEK-293T cells (with Gα[…]gust44), […] aloin.

SMILES strings stand for the structures.

T2 sequence (P59533 whole entry A49P/I296V, the tested form may be a part): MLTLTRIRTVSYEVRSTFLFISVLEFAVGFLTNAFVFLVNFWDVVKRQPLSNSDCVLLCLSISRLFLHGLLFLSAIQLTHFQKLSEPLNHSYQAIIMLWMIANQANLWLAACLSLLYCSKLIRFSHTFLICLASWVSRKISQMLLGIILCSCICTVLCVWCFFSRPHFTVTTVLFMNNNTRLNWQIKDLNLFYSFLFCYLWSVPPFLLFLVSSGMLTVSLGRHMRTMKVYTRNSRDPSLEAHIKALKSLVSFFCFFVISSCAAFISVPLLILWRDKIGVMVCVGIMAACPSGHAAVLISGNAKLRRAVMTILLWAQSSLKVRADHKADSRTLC

As usually defined, the IC50 is the concentration at which inhibition is half-maximal. In the case of `CCCN(CCC)S(=O)(=O)c1ccc(C(=O)O)cc1` [probenecid, p-(dipropylsulfamoyl)benzoic acid], the IC50 in experiment [1] turned out to be 292 µM; in experiment [2], 211 µM.

What is called EC50 is the concentration that produces a half-maximal response. With `OCc1ccccc1O[C@@H]1O[C@H](CO)[C@@H](O)[C@H](O)[C@H]1O` [salicin], the EC50 in experiment [3] was around 1.2 mM.

For the compound `O=C1c2c(O)cccc2C([C@@H]2O[C@H](CO)[C@@H](O)[C@H](O)[C@H]2O)c2cc(CO)cc(O)c21` (stereo partly shown) [aloin], the “calcium flux in transfected HEK-293T cells (with Gα16gust44), 3 mM aloin” value in experiment [4] is “Aloin induced an increase in intracellular calcium in HEK-293T cells expressing hTAS2R43”.
